Where two headings read alike, the source gives them in different places.

The subject of test [1] is patients with a recent major atherothrombotic cardiovascular event. Put plainly: Clinical outcome study in high-risk patients for prevention of recurrent events. Type of test: in vivo, human. As to conditions: for annual absolute event rate lowered to: annual risk estimated approximately 7%. How it is done: The first clinical outcome study is performed in high-risk patients who have experienced a recent major atherothrombotic cardiovascular event (myocardial infarction or ischemic stroke) to investigate the preventive effect of Vorinostat treatment on the risk for recurrent events. The annual risk for a recurrent atherothrombotic event in the investigated population is estimated to approximately 7%. Patients are randomized in a parallel study design to receive double-blind oral treatment with 10 mg Vorinostat or placebo daily, in addition to optimal conventional treatment. The event rate is monitored by Kaplan-Meyer statistics. The primary efficacy endpoint is the composite measure of either mortality, or non-fatal myocardial infarction or ischemic stroke. The study is event-driven to a total of 180 events in the placebo group.
The first clinical outcome study is performed in high-risk patients who have experienced a recent major atherothrombotic cardiovascular event (myocardial infarction or ischemic stroke) to investigate the preventive effect of VPA treatment on the risk for recurrent events. Signs of a low-grade inflammatory condition is an inclusion criterion, defined as an elevated serum level of high-sensitivity C-reactive protein (hs-CRP) >3 mg/L. The annual risk for a recurrent atherothrombotic event in the investigated population is estimated to approximately 7%. Patients are randomized in a parallel study design to receive double-blind oral treatment with 100 mg valproic acid or placebo twice daily, in addition to optimal conventional treatment. The event rate is monitored by Kaplan-Meyer statistics. The primary efficacy endpoint is the composite measure of either mortality, or non-fatal myocardial infarction or ischemic stroke. The study is event-driven to a total of 180 events in the placebo group. […] Thus, this study confirms the clinical efficacy and feasibility of using VPA for secondary prevention of cardiovascular events.

Test [2] concerns high-risk patients with recent deep vein thrombosis or pulmonary embolus. Put plainly: Clinical outcome study for prevention of recurrent venous thromboembolic events. Type of test: in vivo, human. Here is the method:
This study is performed in high-risk patients who have experienced a recent deep vein thrombosis or circulatory stable pulmonary embolus to investigate the preventive effect of Vorinostat treatment on the risk for recurrent venous thrombotic events. Patients with a cancer diagnosis who presents with a first episode of a proximal deep venous thrombosis without unstable pulmonary embolism will be included. The patients will receive conventional treatment (i.e warfarin for 3-6 months) and thereafter included in the study. Patients are randomized in a parallel study design to receive double-blind oral treatment with 10 mg Vorinostat or placebo daily, in addition to optimal conventional treatment. The event rate is monitored by Kaplan-Meyer statistics. The primary efficacy endpoint is the composite measure of either mortality, or recurrent deep venous thrombosis or pulmonary embolism. The study is event-driven to a total of 180 events in the placebo group. […] Thus, this study confirms the clinical efficacy and feasibility of using Vorinostat for secondary prevention of venous thromboembolism.
This study is performed in high-risk patients who have experienced a recent deep vein thrombosis or circulatory stable pulmonary embolus to investigate the preventive effect of VPA treatment on the risk for recurrent venous thrombotic events. Patients with a cancer diagnosis and low grade inflammation who present with a first episode of a proximal deep venous thrombosis without unstable pulmonary embolism are included. The patients receive conventional treatment (i.e warfarin for 3-6 months) and thereafter are included in the study. Patients are randomized in a parallel study design to receive double-blind oral treatment with 100 mg valproic acid or placebo twice daily, in addition to optimal conventional treatment. The event rate is monitored by Kaplan-Meyer statistics. The primary efficacy endpoint is the composite measure of either mortality, or recurrent deep venous thrombosis or pulmonary embolism. The study is event-driven to a total of 180 events in the placebo group. […] Thus, this study confirms the clinical efficacy and feasibility of using VPA for secondary prevention of venous thromboembolism.

Test [3] relates to t-PA mRNA expression in human umbilical vein endothelial cells (HUVECs). Put plainly: In vitro dose response: t-PA mRNA (and protein) expression in HUVEC after 24 h. Type of test: cell-based. How it is done:
Human umbilical vein endothelial cells (HUVECs) were prepared by collagenase treatment of fresh umbilical cords (Jaffe, E. A., et al. J Clin Invest 52, 2745-2756 (1973)) obtained from the maternity ward of the Sahlgrenska University hospital, Gotheburg, Sweden. Cells were cultured in EGM-2 medium (Lonza, Basel, Switzerland) and all experiments were performed in passage 1 of subcultivation. Confluent HUVECs were exposed to 10 nM-10 μM of Vorinostat (Selleck Chemicals, Houston, Tex., USA) in complete medium for 24 h. After 24 h, cells and conditioned media were harvested.
Total RNA was prepared using RNeasy Mini RNA kit (Qiagen, Hilden, Germany) and genomic DNA was removed using RNase-free DNase I set (Qiagen). Levels of t-PA mRNA were analyzed with real-time RT-PCR, performed on an Applied Biosystems 7500 Fast Real-Time PCR System using cDNA and Taqman reagents obtained from Applied Biosystems (Foster City, Calif., USA). Hypoxanthine phosphoribosyl transferase (HPRT, Assay number Hs99999909_m1, Applied Biosystems) was used as endogenous internal standard.
Endothelial cells in culture are known to constitutively secrete the majority of synthesized t-PA making conditioned media a suitable source for quantification of t-PA protein. Conditioned medium from cell cultures was collected, centrifuged (10 000×g, 10 min, 4° C.) to remove cell debris, transferred to fresh tubes and stored at −70° C. Concentrations of t-PA antigen in conditioned media were determined using the commercially available TriniLize t-PA antigen ELISA (Trinity Biotech, Bray, Ireland) according to manufacturer's protocol.

The mark [4] stands for this setting: doses as for risk reduction (Vorinostat 10 mg, Belinostat 65 mg, Givinostat 2 mg, Panobinostat 0.5 mg, PCI-24781 2 mg, JNJ-26481585 0.2 mg, Mocetinostat 2 mg, SB939 0.4 mg, CXD101 10 mg daily).
The mark [5] stands for this setting: long-term, daily oral dose: Vorinostat 10 mg, Belinostat 65 mg, Givinostat 2 mg, Panobinostat 0.5 mg, PCI-24781 2 mg, JNJ-26481585 0.2 mg, Mocetinostat 2 mg, SB939 0.4 mg, CXD101 10 mg.
The mark [6] stands for this setting: daily oral dose: Vorinostat 10 mg, Givinostat 2 mg, Panobinostat 0.5 mg, PCI-24781 2 mg, JNJ-26481585 0.2 mg, Mocetinostat 2 mg, SB939 0.4 mg, CXD101 10 mg, Belinostat example prints 10 mg Vorinostat.
The mark [7] stands for this setting: hs-CRP >3 mg/L, 100 mg valproic acid orally twice daily.

With `Nc1ccccc1NC(=O)c1ccc(CNc2nccc(-c3cccnc3)n2)cc1` [Mocetinostat], the “annual absolute event rate lowered to” value in test [1] (setting [4]) was “approximately 5%”. Besides, in test [1] (setting [5]), the “reduction of risk for recurrent atherothrombotic events, in addition to conventional therapy” value is “approximately 30%”. Moreover, in test [2] (setting [6]), the “reduction of risk for recurrent venous thrombotic events, in addition to conventional therapy” value was “approximately 30%”. Also, in test [3], the “concentration at which a significant increase of t-PA mRNA levels was seen” value is 100 nM, the “concentration of maximal effect on t-PA expression” value (shortened to “concentration of maximal effect”) is “around 3 μM” and the “increase of t-PA expression at maximal effect” value (shortened to “increase of t-PA expression”) is listed as “approximately 15 times”. In addition, in test [3] (present-tense Examples 3-9), the “concentration at which a significant increase of t-PA mRNA levels is seen” value amounted to 10 nM, the “concentration of maximal effect” value is “around 3 μM” and the “increase of t-PA expression” value was “approximately 10 times”.
For the compound `CCCC(CCC)C(=O)O` [VPA, valproic acid], in test [1] (setting [7]), the “reduction of risk for recurrent atherothrombotic events, in addition to conventional therapy” value is “approximately 30%” and the “annual absolute event rate lowered to” value is given as “approximately 5%”. Moreover, in test [2] (cancer diagnosis and low grade inflammation, 100 mg valproic acid orally twice daily), the “reduction of risk for recurrent venous thrombotic events, in addition to conventional therapy” value is on record as “approximately 30%”.
Turning to `Cn1cc(CNCC2CCN(c3ncc(C(=O)NO)cn3)CC2)c2ccccc21` [JNJ-26481585, N-hydroxy-2-(4-((((1-methyl-1H-indol-3-yl)methyl)amino)methyl)piperidin-1-yl)pyrimidine-5-carboxamide], in test [1] (setting [4]), the “annual absolute event rate lowered to” value is recorded as “approximately 5%”. The “reduction of risk for recurrent atherothrombotic events, in addition to conventional therapy” value in test [1] (setting [5]) is on record as “approximately 30%”. Moreover, the “reduction of risk for recurrent venous thrombotic events, in addition to conventional therapy” value in test [2] (setting [6]) is on record as “approximately 30%”. In test [3], the “concentration at which a significant increase of t-PA mRNA levels was seen” value is 3 nM, the “concentration of maximal effect” value is on record as “around 30 nM” and the “increase of t-PA expression” value is given as “approximately 6 times”. Besides, in test [3] (present-tense Examples 3-9), the “concentration at which a significant increase of t-PA mRNA levels is seen” value was 1 nM, the “concentration of maximal effect” value is listed as “around 30 nM” and the “increase of t-PA expression” value is recorded as “approximately 10 times”.
`Cc1nn(C)cc1CN1CCC(c2ccc(C(=O)Nc3ccccc3N)cc2)CC1` [CXD101]: the “annual absolute event rate lowered to” value in test [1] (setting [4]) was “approximately 5%”. Besides, in test [1] (setting [5]), the “reduction of risk for recurrent atherothrombotic events, in addition to conventional therapy” value is given as “approximately 30%”. In addition, the “reduction of risk for recurrent venous thrombotic events, in addition to conventional therapy” value in test [2] (setting [6]) is listed as “approximately 30%”. Moreover, in test [3] (present-tense Examples 3-9), the “concentration at which a significant increase of t-PA mRNA levels is seen” value was 10 nM, the “concentration of maximal effect” value is “around 3 μM” and the “increase of t-PA expression” value is “approximately 10 times”.
As for `CN(C)Cc1c(C(=O)NCCOc2ccc(C(=O)NO)cc2)oc2ccccc12` [PCI-24781, 3-(dimethylaminomethyl)-N-[2-[4-(hydroxycarbamoyl)phenoxy]ethyl]-1-benzofuran-2-carboxamide], the “annual absolute event rate lowered to” value in test [1] (setting [4]) is “approximately 5%”. Moreover, in test [1] (setting [5]), the “reduction of risk for recurrent atherothrombotic events, in addition to conventional therapy” value is “approximately 30%”. The “reduction of risk for recurrent venous thrombotic events, in addition to conventional therapy” value in test [2] (setting [6]) is listed as “approximately 30%”. In test [3], the “concentration at which a significant increase of t-PA mRNA levels was seen” value is given as 100 nM, the “concentration of maximal effect” value is recorded as “around 1 μM” and the “increase of t-PA expression” value is “approximately 6 times”. Moreover, in test [3] (present-tense Examples 3-9), the “concentration at which a significant increase of t-PA mRNA levels is seen” value came to 1 nM, the “concentration of maximal effect” value is reported as “around 0.3 μM” and the “increase of t-PA expression” value was “approximately 10 times”.
`O=C(/C=C/c1cccc(S(=O)(=O)Nc2ccccc2)c1)NO` [Belinostat]: the “annual absolute event rate lowered to” value in test [1] (setting [4]) was “approximately 5%”. For the same compound, in test [1] (setting [5]), the “reduction of risk for recurrent atherothrombotic events, in addition to conventional therapy” value is on record as “approximately 30%”. The “reduction of risk for recurrent venous thrombotic events, in addition to conventional therapy” value in test [2] (setting [6]) is given as “approximately 30%”. In test [3], the “concentration at which a significant increase of t-PA mRNA levels was seen” value is 10 nM, the “concentration of maximal effect” value is “around 3 μM” and the “increase of t-PA expression” value was “approximately 10 times”.
Turning to `O=C(CCCCCCC(=O)Nc1ccccc1)NO` [Vorinostat], in test [1] (setting [4]), the “annual absolute event rate lowered to” value is given as “approximately 5%”. Also, the “reduction of risk for recurrent atherothrombotic events, in addition to conventional therapy” value in test [1] (setting [5]) is listed as “approximately 30%”. Also, in test [2] (setting [6]), the “reduction of risk for recurrent venous thrombotic events, in addition to conventional therapy” value is recorded as “approximately 30%”. Further, in test [3], the “concentration at which a significant increase of t-PA mRNA levels was seen” value is listed as 50 nM, the “concentration of maximal effect” value was “around 3 μM” and the “increase of t-PA expression” value is “approximately 7 times”.
In the case of `CCN(CC)Cc1ccc2cc(COC(=O)Nc3ccc(C(=O)NO)cc3)ccc2c1.Cl` [Givinostat], the “annual absolute event rate lowered to” value in test [1] (setting [4]) is listed as “approximately 5%”. In addition, the “reduction of risk for recurrent atherothrombotic events, in addition to conventional therapy” value in test [1] (setting [5]) is reported as “approximately 30%”. Moreover, the “reduction of risk for recurrent venous thrombotic events, in addition to conventional therapy” value in test [2] (setting [6]) is “approximately 30%”. For the same compound, in test [3], the “concentration at which a significant increase of t-PA mRNA levels was seen” value is recorded as 30 nM, the “concentration of maximal effect” value turned out to be 0.3 µM and the “increase of t-PA expression” value was 10 times. In addition, in test [3] (present-tense Examples 3-9), the “concentration at which a significant increase of t-PA mRNA levels is seen” value was 10 nM, the “concentration of maximal effect” value was “around 0.3 μM” and the “increase of t-PA expression” value is listed as “approximately 10 times”.

Source of the values: patent publication US20230094176A1, “COMPOUNDS AND METHODS FOR IMPROVING IMPAIRED ENDOGENOUS FIBRINOLYSIS USING HISTONE DEACETYLASE INHIBITORS” (Cereno Scientific AB, priority 2011, published 2023).
